The record followed here is US11220518B2, “Substituted n-pyrimidin-4-yl-3-amino-pyrrolo[3,4-c]pyrazoles as protein kinase C inhibitors” (PFIZER INC., priority 2007, dated 2022).

This experiment addresses Protein Kinase C beta 2 (PKCβII) (Homo sapiens (Human), UniProt P05771). In words: Protein Kinase C beta 2 (PKCβII) coupled PK/LDH spectrophotometric kinase assay. The experiment is classed as biochemical. Conditions: apparent Ki, ATP-competitive model (Morrison equation); 5 nM PKC, 0.1 mM ATP, 0.15 mM peptide, 30° C., pH 7.4; read-out: Ki app. The protocol: Protein Kinase C beta 2 (PKCβII) catalyzes the production of ADP from ATP that accompanies the phosphoryl transfer to the PKC Pseudosubstrate peptide (A→S, RFARKGSLRQKNV). This transfer is coupled to the oxidation of β-NADH through the activities of Pyruvate Kinase (PK) and Lactate Dehydrogenase (LDH). β-NADH conversion to NAD+ is monitored by the decrease in absorbance at 340 nm (e=6.22 cm^−1 mM^−1) using a Molecular Devices SPECTRA max PLUS spectrophotometer. […]
Steady-state kinetic parameters for the bi-bi kinase reaction were determined at saturating phospho-acceptor peptide substrate concentration (0.15 mM) by fitting initial velocity data to the Michaelis-Menten equation, v=Vmax[S]/(KM[S]) where v is the measured initial velocity, Vmax is the maximal enzyme velocity, [S] is the ATP substrate concentration, and KM is the Michealis constant for ATP. Enzyme turnover values (kcat) were calculated according to […], where [E] is the total enzyme concentration. Enzyme inhibition constants (apparent Ki values) were determined by fitting initial velocities at variable inhibitor concentrations to a model for ATP competitive inhibition based on the Morrison equation). […]

Chain of Protein Kinase C beta 2 (PKCβII) (P05771 other isoform, or with tags, fused parts or gaps): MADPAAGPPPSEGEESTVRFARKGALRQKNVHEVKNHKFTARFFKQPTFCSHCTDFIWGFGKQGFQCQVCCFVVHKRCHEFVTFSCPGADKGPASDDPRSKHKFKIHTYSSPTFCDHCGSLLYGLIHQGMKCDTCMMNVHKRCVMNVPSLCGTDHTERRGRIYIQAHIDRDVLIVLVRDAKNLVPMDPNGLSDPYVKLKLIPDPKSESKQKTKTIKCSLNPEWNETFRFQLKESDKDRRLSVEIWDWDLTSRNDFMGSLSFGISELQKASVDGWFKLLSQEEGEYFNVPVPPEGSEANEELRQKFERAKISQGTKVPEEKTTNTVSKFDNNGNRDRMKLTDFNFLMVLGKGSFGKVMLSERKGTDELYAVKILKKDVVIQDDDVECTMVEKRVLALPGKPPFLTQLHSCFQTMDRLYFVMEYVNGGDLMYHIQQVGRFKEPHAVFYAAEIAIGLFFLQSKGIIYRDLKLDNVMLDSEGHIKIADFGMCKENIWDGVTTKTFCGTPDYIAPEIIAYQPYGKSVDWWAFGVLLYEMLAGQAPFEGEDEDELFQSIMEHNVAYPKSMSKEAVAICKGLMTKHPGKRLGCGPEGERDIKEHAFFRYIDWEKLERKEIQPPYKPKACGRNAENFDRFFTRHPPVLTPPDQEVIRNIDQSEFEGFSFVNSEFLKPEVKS

On to `COCc1ncc(F)c(Nc2n[nH]c3c2CN(C(=O)N2CC(CCO)N(C)C[C@@H]2C)C3(C)C)n1` (single isomer, unassigned) [Example N3], for which the Ki was determined as 15.6 nM. With `CCOc1ncc(F)c(Nc2n[nH]c3c2CN(C(=O)N2C[C@@H](C)N(C)C[C@@H]2C)C3(C)C)n1` [Example K1, N-(2-ethoxy-5-fluoropyrimidin-4-yl)-6,6-dimethyl-5-{[(2S,5R)-2,4,5-trimethylpiperazin-1-yl]carbonyl}-1,4,5,6-tetrahydropyrrolo[3,4-c]pyrazol-3-amine], the Ki worked out at 1.12 nM.
